Results from patent publication US20060210554A1, “Detection of cholesterol ozonation products” (priority 2003, published 2006).

Assays:
apoB-100 of human LDL = apoB-100 of human LDL (Homo sapiens, UniProt P04114); experiment: Circular dichroism of LDL secondary structure; details: LDL 100 μg/ml, compound 10 μM, PBS pH 7.4, 37° C., up to 48 h; for random coil of LDL protein after incubation: normal LDL 27±2%; for a helical structure of LDL protein after incubation: normal LDL ~40±2%
Experimental: Circular dichroism. […] Spectra were recorded in the peptidic range (200-260 nm). To increase the signal-to-noise ratio, multiple spectra (three) were averaged for each measurement.

[1] = Aldolization of ketoaldehyde 4a with amino acids (1H NMR); type: physicochemical; details: L-Lys(OEt).2HCl, 1 equivalent, 100 h, DMSO-d6/D2O
Experimental: Aldolization of ketoaldehyde 4a with amino acids. […] To this solution was added 1 equivalent of either: a) L-proline, b) glycine, c) L-lysine hydrochloride or d) L-lysine ethyl ester dihydrochloride. At time points the samples were analyzed by ^1H NMR.

apoB-100 of human LDL, sequence (P04114 28-4563): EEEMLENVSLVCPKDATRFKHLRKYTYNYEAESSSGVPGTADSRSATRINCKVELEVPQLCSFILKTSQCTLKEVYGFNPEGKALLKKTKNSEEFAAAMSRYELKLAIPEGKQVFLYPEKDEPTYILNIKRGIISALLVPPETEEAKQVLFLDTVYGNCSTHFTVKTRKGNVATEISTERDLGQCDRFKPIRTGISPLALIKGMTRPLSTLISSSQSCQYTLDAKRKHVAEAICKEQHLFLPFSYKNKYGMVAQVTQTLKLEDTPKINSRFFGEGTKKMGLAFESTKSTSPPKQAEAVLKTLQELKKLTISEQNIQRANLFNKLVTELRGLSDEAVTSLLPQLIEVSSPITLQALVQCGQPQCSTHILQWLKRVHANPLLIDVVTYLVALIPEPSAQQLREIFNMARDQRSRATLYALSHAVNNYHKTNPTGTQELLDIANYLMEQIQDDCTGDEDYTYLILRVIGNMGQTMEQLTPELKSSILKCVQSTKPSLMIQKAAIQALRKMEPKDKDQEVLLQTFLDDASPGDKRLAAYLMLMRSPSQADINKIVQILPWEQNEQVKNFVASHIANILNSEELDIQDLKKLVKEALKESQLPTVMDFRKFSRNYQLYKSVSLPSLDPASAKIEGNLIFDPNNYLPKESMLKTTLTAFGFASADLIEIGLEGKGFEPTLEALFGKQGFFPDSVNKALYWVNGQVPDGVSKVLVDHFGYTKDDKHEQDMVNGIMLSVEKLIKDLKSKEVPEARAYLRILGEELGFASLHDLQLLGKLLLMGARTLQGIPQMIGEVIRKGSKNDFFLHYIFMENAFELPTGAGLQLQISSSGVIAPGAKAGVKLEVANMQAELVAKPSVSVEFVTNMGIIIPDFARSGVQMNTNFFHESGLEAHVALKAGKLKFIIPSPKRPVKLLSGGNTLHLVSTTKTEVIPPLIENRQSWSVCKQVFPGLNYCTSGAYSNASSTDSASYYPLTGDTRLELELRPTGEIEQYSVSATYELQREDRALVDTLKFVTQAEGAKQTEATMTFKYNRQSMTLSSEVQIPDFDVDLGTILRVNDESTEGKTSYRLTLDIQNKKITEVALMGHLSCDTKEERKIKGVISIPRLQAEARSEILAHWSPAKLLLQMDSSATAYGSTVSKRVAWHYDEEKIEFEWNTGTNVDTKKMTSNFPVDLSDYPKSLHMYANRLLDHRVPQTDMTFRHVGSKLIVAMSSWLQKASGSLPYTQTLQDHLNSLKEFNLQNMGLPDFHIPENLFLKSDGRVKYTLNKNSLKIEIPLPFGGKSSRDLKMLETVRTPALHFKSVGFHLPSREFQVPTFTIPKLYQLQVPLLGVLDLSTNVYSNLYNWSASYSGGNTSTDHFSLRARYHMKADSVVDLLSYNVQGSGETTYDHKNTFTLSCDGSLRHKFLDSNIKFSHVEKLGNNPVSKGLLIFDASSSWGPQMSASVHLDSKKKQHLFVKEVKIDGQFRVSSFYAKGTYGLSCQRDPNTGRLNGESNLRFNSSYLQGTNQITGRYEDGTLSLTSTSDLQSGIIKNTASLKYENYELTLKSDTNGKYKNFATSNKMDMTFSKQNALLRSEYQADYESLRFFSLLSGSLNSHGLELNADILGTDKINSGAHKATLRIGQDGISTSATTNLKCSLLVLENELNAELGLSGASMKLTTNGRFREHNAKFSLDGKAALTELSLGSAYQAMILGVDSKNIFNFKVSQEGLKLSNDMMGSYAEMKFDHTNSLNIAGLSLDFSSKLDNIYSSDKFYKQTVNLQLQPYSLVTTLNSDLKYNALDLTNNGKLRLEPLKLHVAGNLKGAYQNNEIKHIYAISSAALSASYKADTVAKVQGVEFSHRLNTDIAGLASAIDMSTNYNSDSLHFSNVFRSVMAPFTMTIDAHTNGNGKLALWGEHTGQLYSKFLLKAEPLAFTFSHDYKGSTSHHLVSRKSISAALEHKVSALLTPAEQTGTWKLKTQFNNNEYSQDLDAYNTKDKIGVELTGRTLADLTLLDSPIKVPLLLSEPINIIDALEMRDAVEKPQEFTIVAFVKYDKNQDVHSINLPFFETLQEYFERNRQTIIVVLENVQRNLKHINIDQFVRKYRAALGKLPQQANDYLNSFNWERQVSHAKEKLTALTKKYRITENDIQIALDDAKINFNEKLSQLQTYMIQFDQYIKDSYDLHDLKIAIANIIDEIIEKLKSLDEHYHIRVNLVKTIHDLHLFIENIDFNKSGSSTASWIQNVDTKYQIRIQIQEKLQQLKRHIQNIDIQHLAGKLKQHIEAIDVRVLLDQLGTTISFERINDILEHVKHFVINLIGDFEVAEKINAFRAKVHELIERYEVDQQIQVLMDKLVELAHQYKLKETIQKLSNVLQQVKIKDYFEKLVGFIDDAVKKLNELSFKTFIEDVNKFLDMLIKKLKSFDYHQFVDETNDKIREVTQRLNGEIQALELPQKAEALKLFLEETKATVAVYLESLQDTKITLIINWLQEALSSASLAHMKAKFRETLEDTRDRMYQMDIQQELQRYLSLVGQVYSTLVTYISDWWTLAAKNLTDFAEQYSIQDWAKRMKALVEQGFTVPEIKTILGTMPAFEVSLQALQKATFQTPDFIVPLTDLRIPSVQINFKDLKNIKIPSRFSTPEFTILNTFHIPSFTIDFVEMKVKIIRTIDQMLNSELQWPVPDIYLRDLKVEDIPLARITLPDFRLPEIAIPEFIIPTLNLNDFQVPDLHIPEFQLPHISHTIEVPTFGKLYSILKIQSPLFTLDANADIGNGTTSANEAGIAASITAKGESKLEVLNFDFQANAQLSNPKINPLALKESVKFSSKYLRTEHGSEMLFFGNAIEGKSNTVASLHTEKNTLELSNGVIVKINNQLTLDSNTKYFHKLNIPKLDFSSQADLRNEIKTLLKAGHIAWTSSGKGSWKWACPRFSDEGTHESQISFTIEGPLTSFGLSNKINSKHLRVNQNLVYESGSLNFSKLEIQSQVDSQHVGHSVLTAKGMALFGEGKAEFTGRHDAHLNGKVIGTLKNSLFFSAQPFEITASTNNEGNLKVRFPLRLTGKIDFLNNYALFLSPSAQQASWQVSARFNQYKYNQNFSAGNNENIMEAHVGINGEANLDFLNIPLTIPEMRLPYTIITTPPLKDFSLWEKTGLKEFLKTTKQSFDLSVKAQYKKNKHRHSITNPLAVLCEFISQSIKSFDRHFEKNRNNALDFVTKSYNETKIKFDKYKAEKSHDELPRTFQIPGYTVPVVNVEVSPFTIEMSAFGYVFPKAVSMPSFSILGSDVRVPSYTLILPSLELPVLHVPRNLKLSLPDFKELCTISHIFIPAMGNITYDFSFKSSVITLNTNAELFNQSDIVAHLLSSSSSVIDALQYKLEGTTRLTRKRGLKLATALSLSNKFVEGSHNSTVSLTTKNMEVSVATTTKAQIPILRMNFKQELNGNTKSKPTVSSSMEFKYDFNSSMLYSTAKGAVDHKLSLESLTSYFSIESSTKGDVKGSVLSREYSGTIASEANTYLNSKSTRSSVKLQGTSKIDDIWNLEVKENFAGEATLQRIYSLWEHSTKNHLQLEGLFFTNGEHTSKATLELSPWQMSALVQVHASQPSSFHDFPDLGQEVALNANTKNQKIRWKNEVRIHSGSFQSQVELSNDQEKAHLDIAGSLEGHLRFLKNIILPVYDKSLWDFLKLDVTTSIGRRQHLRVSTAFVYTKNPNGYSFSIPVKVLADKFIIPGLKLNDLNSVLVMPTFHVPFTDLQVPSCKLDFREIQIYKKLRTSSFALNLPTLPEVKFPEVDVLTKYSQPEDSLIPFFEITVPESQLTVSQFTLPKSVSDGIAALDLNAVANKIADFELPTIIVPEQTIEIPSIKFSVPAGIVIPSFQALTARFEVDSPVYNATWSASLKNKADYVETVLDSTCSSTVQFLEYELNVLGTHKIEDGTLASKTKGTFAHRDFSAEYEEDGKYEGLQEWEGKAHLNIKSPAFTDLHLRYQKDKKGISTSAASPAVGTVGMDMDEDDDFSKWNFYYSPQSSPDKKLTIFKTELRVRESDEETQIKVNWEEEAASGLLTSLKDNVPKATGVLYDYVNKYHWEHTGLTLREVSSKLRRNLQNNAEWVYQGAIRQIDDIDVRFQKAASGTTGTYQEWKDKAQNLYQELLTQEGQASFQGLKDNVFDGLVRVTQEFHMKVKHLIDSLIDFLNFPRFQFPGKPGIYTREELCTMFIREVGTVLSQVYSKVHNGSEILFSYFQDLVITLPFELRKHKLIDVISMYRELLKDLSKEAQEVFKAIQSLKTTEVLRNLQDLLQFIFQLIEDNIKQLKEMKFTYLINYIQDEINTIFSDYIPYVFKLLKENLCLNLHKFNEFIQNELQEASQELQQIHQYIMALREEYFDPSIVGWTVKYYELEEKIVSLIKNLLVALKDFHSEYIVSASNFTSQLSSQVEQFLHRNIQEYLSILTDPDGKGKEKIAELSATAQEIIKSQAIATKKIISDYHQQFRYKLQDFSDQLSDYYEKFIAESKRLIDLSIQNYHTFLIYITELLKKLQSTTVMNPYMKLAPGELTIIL

Structure (SMILES)	random coil of LDL protein after incubation (apoB-100 of human LDL) [%]	a helical structure of LDL protein after incubation (apoB-100 of human LDL) [%]	conversion of 4a into 5a [1] [% conversion]
CC(C)CCC[C@@H](C)[C@H]1CCC2C(CC=O)C([C@@]3(C)CC[C@H](O)CC3=O)CC[C@@]21C (some centres unmarked) [4a, 3βHydroxy-5-oxo-5,6-secocholestan-6-al]	~39±2	~23±5	62
CC(C)CCC[C@@H](C)[C@H]1CCC2C3C(CC[C@@]21C)[C@@]1(C)CC[C@H](O)C[C@@]1(O)[C@@H]3C=O (stereo partly drawn) [5a, 3β-Hydroxy-5β-hydroxy-B-norcholestane-6β-carboxaldehyde]	32±4	~20±2	
